What all share (assay): inhibition of tumour cell growth, NCI panel, 48 h
Experiment [1] relates to A549 NSCLC.
Experiment [2] relates to HCC-2998 colon.
Experiment [3] relates to HCT-116 colon.
For experiment [4], the system named is MALME-3M melanoma.
Experiment [5] relates to OVCAR-3 ovarian.
Experiment [6] deals with RPMI-8226 leukemia.
The subject of experiment [7] is SK-OV-3 ovarian.
Experiment [8] concerns MDA-MB-231 breast.
Experiment [9] has as its system MDA-MB-435.

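1) Cells in 96-well plates. 2) Compound, 48 h, 5 concentrations. 3) Linear interpolation between surrounding doses. 4) Unreached endpoint = highest concentration. GI50 = concentration required for 50% inhibition of growth. TGI denotes the concentration required for complete inhibition of growth.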 Some results are limits rather than exact numbers.

This is an account of results in PubChem BioAssay (NCI).

Regarding `C[S+](C)CCOC(=O)C(=[N+]=[N-])c1ccc([N+](=O)[O-])cc1`, the TGI in experiment [1], in [2], in [3], in [4], in [5] and in [6] was above 100 µM in each case. For the same compound, the TGI in [7] is above 100 µM.
For the compound `N#Cc1c(NN)nc(NN)c(C#N)c1-c1ccccc1`, the TGI in [1], in experiment [2], in [3], in experiment [4], in [5] and in experiment [6] was above 100 µM each time. The compound also gave a TGI in experiment [7] above 100 µM.
Regarding `Cc1cc2nc(CCC(=O)O)c(=O)[nH]c2cc1C`, the TGI in [1], in experiment [2], in [3], in experiment [4], in experiment [5] and in experiment [6] was above 100 µM each time. Besides, the TGI in experiment [7] was above 100 µM.
Consider `CCCCCC/C=C1\CCC(CN2CCCC2)C1=O` (stereo not given), for which the TGI in [1] was 37 µM; in experiment [2] it was 31.6 µM; in experiment [3], 25 µM; in experiment [4], 34.6 µM; in experiment [5] it was 27.3 µM; in experiment [6] it was 5.56 µM. The same compound yielded a TGI in [7] of 33 µM.
Take `Oc1ccccc1C=NCc1ccco1`: the TGI in [1], in experiment [3], in experiment [4], in experiment [5], in experiment [6] and in experiment [7] was above 100 µM each time.
`O=c1nc2n(-c3ccc(Cl)cc3)c3ccc([N+](=O)[O-])cc3cc-2c(=O)[nH]1`: the GI50 in experiment [1] is 30.4 µM; in experiment [2] it was 22.3 µM; in experiment [3], 16.1 µM; in experiment [8], 17.3 µM; in experiment [9], 15.8 µM; in [5], 5.57 µM. Besides, the GI50 in experiment [6] is 12.3 µM; in experiment [7] it was 41.7 µM. For the same compound, the TGI in experiment [1] was above 100 µM; in experiment [2], 54.3 µM; in [3], 33.2 µM; in experiment [8], 44.5 µM; in [9], 37.7 µM; in experiment [5], 21.6 µM. Moreover, the TGI in experiment [6] was 47.7 µM; in experiment [7] it was above 100 µM.
For `Clc1ccc2c(c1)C1C(CO2)C(c2ccccc2)=NN1c1ccccc1` (stereo not given), the TGI in [1] is above 100 µM; in experiment [2] it was above 100 µM; in experiment [3], 62.4 µM; in experiment [4], above 100 µM; in experiment [5], above 100 µM; in [6], 47.6 µM. The compound further showed a TGI in [7] above 100 µM.
Take `O=C(CC1(O)C(=O)Nc2c(Cl)ccc(Cl)c21)c1ccc2ccccc2c1` (stereo not given): the TGI came to 39.6 µM in [1]; 35.6 µM in [2]; 28.3 µM in experiment [3]; 25.1 µM in experiment [4]; 14.3 µM in experiment [5]; 31 µM in [6]. The TGI in experiment [7] came to 33.5 µM.
Consider `CC(=O)OC1COC(Nc2ccc(C(C)=O)cc2)C(OC(C)=O)C1OC(C)=O` (stereo not given), for which the TGI in [1], in experiment [2], in experiment [4], in experiment [5], in experiment [6] and in experiment [7] was above 100 µM each time.
Consider `CCC/C(=N/NC(=O)C(N)=O)C(CC)C(=O)CCC(=O)N(Cc1ccccc1)Cc1ccccc1` (stereo not given), for which the TGI in experiment [1], in experiment [2], in [3], in [4], in [5] and in experiment [6] was above 100 µM each time. This compound yielded a TGI in [7] above 100 µM.
Regarding `CC(=O)[CH-]C(=O)c1ccccc1.CC(=O)[CH-]C(=O)c1ccccc1.[Eu+3].[OH-].[OH3+]`, the GI50 in experiment [1], in [2], in experiment [3], in experiment [6] and in experiment [7] was above 100 µM throughout. The TGI in experiment [1], in experiment [2], in experiment [3], in experiment [6] and in experiment [7] was above 100 µM in each case.
With `CC(=O)[CH-]C(=O)c1ccccc1.CC(=O)[CH-]C(=O)c1ccccc1.CC1(C)C2CCC1(C)C([O-])C2.CC1(C)C2CCC1(C)C([O-])C2.[Ti+4]`, the GI50 in experiment [1] was 23.9 µM; in experiment [2], 38.5 µM; in experiment [3], 34.9 µM; in experiment [4] it was 12.4 µM; in [5], 59.3 µM; in [6], 25 µM. In addition, in experiment [7], the GI50 is 20.8 µM. Further, the TGI was above 100 µM in experiment [1]; above 100 µM in experiment [2]; above 100 µM in experiment [3]; 30.2 µM in experiment [4]; above 100 µM in experiment [5]; above 100 µM in experiment [6]. Also, the TGI in experiment [7] was determined as 74.1 µM.
With `CCC1(c2c(F)c(F)c(N)c(F)c2F)CCC(=O)NC1=O` (stereo not given), the TGI in experiment [1], in experiment [2], in experiment [3], in [4], in experiment [5] and in [6] was above 100 µM throughout. In experiment [7], this compound displayed a TGI above 100 µM.
With `O=C1NC(=O)C2C(=O)NC(=O)C1C2(c1ccccc1)c1cc[nH]c1` (stereo not given), the TGI in [1], in experiment [2], in experiment [4], in [5], in experiment [6] and in experiment [7] was above 100 µM each time.
As to `Oc1cc(O)c2c(-c3c(O)c(-c4ccc(O)c(O)c4)[o+]c4cc(O)cc(O)c34)c(O)c(-c3ccc(O)c(O)c3)[o+]c2c1`, the TGI in experiment [1] is above 100 µM; in [2], above 100 µM; in experiment [3], above 100 µM; in experiment [4], 84.6 µM; in experiment [5], 46.2 µM; in experiment [6], above 100 µM. For the same compound, in [7], the TGI is above 100 µM.
With `O=C(CO)CC(=O)C(=O)Nc1ccccc1`, the TGI in experiment [1], in experiment [2], in [3], in experiment [4], in experiment [5] and in experiment [7] was above 100 µM throughout.
As for `COC(=O)C(=O)OC1(C(C)=O)CC2(c3ccccc3)OC1(c1ccccc1)c1ccccc12` (stereo not given), the TGI in experiment [1] is 31.3 µM; in experiment [2] it was 31.4 µM; in [3] it was 33.8 µM; in experiment [4], 35.2 µM; in [5], 27.9 µM; in experiment [6], above 100 µM. Further, in [7], the TGI was determined as 95.5 µM.
Take `N#CC(C(=O)/C(=N/N)C(C#N)c1ccccc1)c1ccccc1` (stereo not given): the TGI in [1], in [2], in experiment [3], in experiment [4], in experiment [5] and in [6] was above 100 µM each time. Besides, the TGI in experiment [7] was above 100 µM.
Turning to `Clc1cc(Cc2cc(Cl)c(Cl)c3c2OCOC3)c2c(c1Cl)COCO2`, the TGI in [1] was above 100 µM; in experiment [2] it was above 100 µM; in [3], above 100 µM; in experiment [4], above 100 µM; in [5], 69 µM; in [6], above 100 µM. Moreover, the TGI in [7] stood at 64.4 µM.
Consider `CN(C)c1ccc([O][Bi]([Cl])[Cl])cc1`, for which the GI50 in experiment [1] was above 100 µM; in experiment [2], 42.5 µM; in experiment [3] it was above 100 µM; in experiment [4], above 100 µM; in experiment [5], above 100 µM; in [7], above 100 µM. Besides, the TGI in [1], in experiment [2], in experiment [3], in experiment [4], in experiment [5] and in experiment [7] was above 100 µM each time.
As to `CCOc1ccccc1NC(=O)CC1SC(=Nc2ccc([N+](=O)[O-])cc2)NC1=O` (stereo not given), the TGI in [1] is 38.9 µM; in experiment [2] it was 36.7 µM; in experiment [3], 29.3 µM; in experiment [4], 51.1 µM; in [5] it was 31.6 µM; in [6] it was 28.9 µM.
In the case of `CC1(CO)OC(n2cc(C(=O)NC(=O)OCc3ccccc3)c(=O)[nH]c2=O)CC1O` (stereo not given), the TGI in experiment [1], in experiment [3], in [4], in experiment [5], in experiment [6] and in [7] was above 100 µM in each case.
As to `COc1cccc(NC(=O)/C(CC(=O)CC(c2ccccc2)c2c(O)c3ccccc3oc2=O)=N\NC(C)(C)C)c1OC` (stereo not given), the TGI in experiment [1], in [2], in experiment [3], in experiment [4], in experiment [5] and in [6] was above 100 µM throughout. Also, in experiment [7], the TGI is above 100 µM.
As for `CC(=O)OC[C@]1(O)CC[C@@]23CC1C[C@@H]2CCC1C(C)(C)CCC[C@@]13C` (stereo not given in full), the TGI in experiment [1] stood at 29.6 µM; in [2], 33 µM; in experiment [3] it was 24.2 µM; in experiment [4], 29.5 µM; in [5], 30.8 µM; in experiment [6], 28.1 µM. The compound also gave a TGI in [7] of 28.9 µM.
Regarding `CC1(c2cccc3ccccc23)OC(=O)c2ccccc21` (stereo not given), the TGI in experiment [1] stood at 49.7 µM; in experiment [2] it was 35.6 µM; in experiment [3], 34.6 µM; in [4], 53.4 µM; in experiment [5] it was 58.1 µM; in [6] it was 77.6 µM. Further, the TGI in experiment [7] is 75.8 µM.
Take `CC(=O)[CH-]C(=O)c1ccccc1.CC(=O)[CH-]C(=O)c1ccccc1.CC(C)CCCC(C)[C@H]1CCC2[C@@H]3CC=C4C[C@@H]([O-])CC[C@]4(C)C3CC[C@@]21C.CC[O-].[Ti+4]` (stereo not given in full): the GI50 was above 100 µM in experiment [1]; 62.6 µM in experiment [2]; 45.7 µM in [3]; 29.4 µM in experiment [4]; 49.7 µM in experiment [5]; 18.5 µM in [6]. Further, the GI50 in experiment [7] is above 100 µM. Also, the TGI was above 100 µM in [1]; above 100 µM in experiment [2]; above 100 µM in experiment [3]; 75.6 µM in experiment [4]; above 100 µM in experiment [5]; 52.2 µM in [6]. For the same compound, the TGI in [7] is above 100 µM.
`COC(=O)/C([Se]c1c(C)cc(C)cc1C)=C(\[Se]c1c(C)cc(C)cc1C)C(=O)OC`: the TGI in experiment [1], in experiment [2], in experiment [3], in experiment [4], in [5] and in experiment [6] was above 100 µM throughout. This compound returned a TGI in experiment [7] above 100 µM.
Take `CCc1c(C#N)c(S[C@@H](C(N)=O)c2ccccc2)nc(N(C)C)c1C#N`: the GI50 in experiment [2] was above 100 µM; in experiment [3] it was above 100 µM; in experiment [8], 10.8 µM; in [9], above 100 µM; in experiment [5], above 100 µM; in experiment [6], above 100 µM. In addition, in [7], the GI50 was 6.65 µM. The TGI in [2], in experiment [3], in experiment [8], in experiment [9], in experiment [5] and in [6] was above 100 µM each time. In [7], this compound registered a TGI above 100 µM.
`BrC1=CC=C2NC=CC3=CC=NC1C32` (stereo not given): the TGI in experiment [2] was above 100 µM; in experiment [3], 21.1 µM; in experiment [4], 67.1 µM; in [5] it was 80.6 µM; in experiment [6], 37.8 µM; in [7], above 100 µM.
For `COc1cc(/C=C(\C#N)C(=O)c2ccccc2)ccc1O`, the TGI in experiment [1], in experiment [2], in experiment [3], in experiment [4], in experiment [5] and in experiment [6] was above 100 µM throughout. In experiment [7], this compound came in with a TGI above 100 µM.
As for `O=c1cc2ccccc2nn1Cc1cccc(Cl)c1`, the TGI in experiment [1], in [2], in experiment [3], in [4], in experiment [5] and in experiment [6] was above 100 µM in each case. Further, the TGI in [7] is above 100 µM.
As for `CCCCCCCCCCCCCC(=O)CC(=O)c1c(O)cccc1O`, the TGI in experiment [1] is above 100 µM; in experiment [2], above 100 µM; in experiment [3], above 100 µM; in [4], 92 µM; in experiment [5], 37.3 µM; in [6], 72.4 µM. The compound also displayed a TGI in experiment [7] above 100 µM.
